Source: PubChem BioAssay AID1645868 (Buhrlage Lab, Dana-Farber Cancer Institute and Novartis …, 2021)
The source made the active and inactive calls.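 How the source made its calls: active means maximal percent inhibition of the deubiquitinase OTUD3 of at least 30% across the tested doses; inactive means the rest.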

Molecular target: OTU domain-containing protein 3 (Homo sapiens) (UniProt Q5T2D3)
Test: Validation of screening hits, potency titration, in vitro enzymatic, OTU domain-containing protein 3 DUB inhibitors (AID 1645868)
Conditions: purified OTUD3, ubiquitin-rhodamine cleavage fluorescence, 2 h

Chain of OTU domain-containing protein 3 (Homo sapiens) (Q5T2D3 whole entry, looked up, the tested form may be a part): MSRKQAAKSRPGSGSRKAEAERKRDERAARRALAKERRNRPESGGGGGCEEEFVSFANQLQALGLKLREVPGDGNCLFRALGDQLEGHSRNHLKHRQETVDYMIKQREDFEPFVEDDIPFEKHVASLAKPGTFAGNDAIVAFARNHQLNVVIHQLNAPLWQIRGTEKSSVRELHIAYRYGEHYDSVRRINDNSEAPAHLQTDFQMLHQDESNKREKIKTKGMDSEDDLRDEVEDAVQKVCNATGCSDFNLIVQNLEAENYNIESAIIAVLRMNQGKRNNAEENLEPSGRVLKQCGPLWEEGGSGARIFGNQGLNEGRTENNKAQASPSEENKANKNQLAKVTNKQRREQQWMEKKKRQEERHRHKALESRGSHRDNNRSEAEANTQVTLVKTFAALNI

Structure (SMILES)	IC50
O=C(OC1CSc2nc3ccccc3n2C1)c1ccc([N+](=O)[O-])o1 (stereo not given)	25.7 µM
CCCC(=O)Nc1ccc(SCc2nnc(-c3ccccc3)o2)cc1	> 50 µM (inactive)
O=C(CC(C(=O)Nc1ccc2c(c1)OCO2)C(=O)c1ccccc1)Nc1ccc(Cl)cc1F (stereo not given)	15.4 µM
O=C(Cn1cc(S(=O)(=O)Cc2ccc(Cl)cc2)c2ccccc21)N1CCCCC1	> 50 µM (inactive)
Cc1ccc(NC2=NC(c3ccco3)n3c(nc(C)cc3=O)N2)c(C)c1 (stereo not given)	> 50 µM (inactive)
Cn1c(C(=O)NCc2ccccn2)cc2c(=O)[nH]c3ccccc3c21	> 50 µM (inactive)
COc1cccc2cc(C(=O)Nc3nc(-c4ccncc4)cs3)oc12	1.51 µM
O=C(Nc1ccc2c(c1)OCCO2)C1CCN(C(=O)c2cc(-c3cccnc3)n[nH]2)CC1	> 50 µM (inactive)
Cc1c2c(nc3ccccc13)-c1ccccc1CC2	> 50 µM (inactive)
CC1=C[C@H]2N(c3ccc(C)cc31)[C@H](C(=O)c1cccs1)[C@@H](C(=O)c1ccc(F)cc1)[C@]21C(=O)Nc2ccccc21	> 50 µM (inactive)
NC(=O)c1nc(-c2cccc(F)c2)nc2c1[nH]c(=O)n2C1CCCCC1	> 50 µM (inactive)
O=C(Nc1ccc2c(c1)OCCO2)c1ccc(N2CCCCC2)nn1	> 50 µM (inactive)
CCC(C)Oc1cccc(C(=O)Nc2ccc(CN3CCOCC3)cc2)c1 (stereo not given)	> 50 µM (inactive)
O=C(Nc1cccc2ccccc12)N1CCC(c2nc3c(nnn3Cc3ccc(F)cc3)c(=O)[nH]2)CC1	> 50 µM (inactive)
O=C(CCCc1c[nH]c2ccccc12)Nc1ccc2c(c1)OCCO2	> 50 µM (inactive)
CC(CCc1ccccc1)NC(=O)C(=O)c1cn(CC(=O)N2CCOCC2)c2ccccc12 (stereo not given)	> 50 µM (inactive)
C=C(NC(=O)C(=C)NC(=O)c1csc(C2=N[C@@H]3c4csc(n4)[C@H]4NC(=O)c5csc(n5)[C@H]([C@](C)(O)[C@@H](C)O)NC(=O)C5CSC(=N5)/C(=C/C)NC(=O)C([C@@H](C)O)NC(=O)c5csc(n5)[C@]3(CC2)NC(=O)[C@H](C)NC(=O)C(=C)NC(=O)[C@H](C)NC(=O)C([C@@H](C)CC)NC2C=Cc3c(C(C)O)cc(nc3[C@H]2O)C(=O)OC4C)n1)C(N)=O (stereo not given in full)	> 50 µM (inactive)
COc1ccc(C(=O)Nc2n[nH]c(C)c2-c2cccc(C)c2)c(OC)c1	28.7 µM
Cc1c(OCC(=O)Nc2nc3ccccc3[nH]2)ccc2c3c(c(=O)oc12)CCC3	2.66 µM
Cc1nc(-c2ccc3c(c2)nnn3CCN2CCOCC2)no1	> 50 µM (inactive)
O=C(Nc1cccc(F)c1)c1ncoc1-c1ccco1	> 50 µM (inactive)
CCN(CC)c1nc(F)c2c(c1F)S(=O)(=O)CCN2Cc1ccccc1	> 50 µM (inactive)
CC(C)(C)c1ccc(Cn2nnc3c(=O)[nH]c(C4CCN(S(=O)(=O)c5ccc(S(=O)(=O)NC6CC6)cc5)CC4)nc32)cc1	> 50 µM (inactive)

Structure (SMILES)	IC50
c1ccc2c(c1)CCc1c-2nc2ccccc2c1N1CCOCC1	> 50 µM (inactive)
COc1ccc(OC)c(-c2cn3ccn(-c4ccc5c(c4)CCC5)c(=O)c3n2)c1	> 50 µM (inactive)
O=C(CNC(=O)c1cc2ccccc2[nH]1)Nc1ccc2c(c1)OCCO2	> 50 µM (inactive)
Cn1c2ccccc2c(=O)c2c(=O)n(Cc3ccccc3)c(-c3ccccc3F)nc21	0.33 µM
O=C(COc1nc2ccccc2nc1N1CCOCC1)NC(c1ccccc1)c1ccccc1	> 50 µM (inactive)
Cc1ccc(C)c(Cn2nnc3c(=O)[nH]c(C4CCN(S(=O)(=O)c5ccc(S(=O)(=O)NC6CC6)cc5)CC4)nc32)c1	35.1 µM
Cc1ccc(-n2cc3c(N4CCCC(C(=O)NCC5CCCCC5)C4)ncnc3n2)cc1 (stereo not given)	> 50 µM (inactive)
Cc1ccc(NC(=O)CCC(=O)Nc2ccc3nc(N4CCCCC4)cc(C)c3c2)c(Br)c1	49.8 µM
O=[N+]([O-])c1ccc2c(c1)nc1n2CCN(Cc2ccco2)C1	> 50 µM (inactive)
Cc1cc(C)c2cc(C(=O)NC3CCN(Cc4ccccc4)CC3)[nH]c2c1	32.1 µM
CCn1c(COc2cccc(C(F)(F)F)c2)nnc1SCc1ccc(Cl)cc1	28.8 µM
CC(C)=CCC/C(C)=C/C[C@]1(O)C(=O)c2cc(O)cc(O)c2C(=O)[C@@]1(Cl)CC=C(C)C	> 50 µM (inactive)
CCCCc1nc2sc3c(SCC(=O)NCc4ccccc4)ncnc3c2c2c1CCC2	> 50 µM (inactive)
Nc1c(-c2ccc(Cl)cc2)cnc2cc(-c3ccc(Cl)c(Cl)c3)nn12	16.1 µM
C/C1=C\CCC(C)C(O)CC(O)C(C)C(O)CCC(C)C(O)CC2(O)OC(CC(OC(=O)CC(=O)O)CC(O)CC(O)CC(O)C(C)C(O)/C=C/C(C)C(C(C)CCCCCCCCN=C(N)N)OC1=O)CC(O)C2O (stereo not given)	> 50 µM (inactive)
COc1ccc(NC(=O)CC(=O)c2ccc([N+](=O)[O-])cc2)cc1S(=O)(=O)Nc1ccc(Br)cc1	28.7 µM
CC(C)Oc1ccc(C(=O)Nc2cccc(S(=O)(=O)N3CCCC3)c2)cc1	> 50 µM (inactive)
COc1ccc(Cl)cc1-n1nnc(C(=O)N2CCc3ccccc3C2)c1C	> 50 µM (inactive)
CC(C)OC(=O)c1cc2c(ccn2-c2ccc(F)cc2)n1CC(=O)NC1CCCCC1	> 50 µM (inactive)
O=C(CNC(=O)OCc1ccccc1)Nc1ccc(Br)cc1C(=O)c1ccccc1Cl	13.4 µM
CC1=CN2C(=N)/C(=C/c3cn(Cc4ccc(Cl)cc4)c4ccccc34)C(=O)N=C2S1	> 50 µM (inactive)
O=C(c1ccco1)N1CCN=C1SCc1ccccc1F	> 50 µM (inactive)
CC1CCN(S(=O)(=O)c2ccc3[nH]cc(C(=O)NCc4ccco4)c(=O)c3c2)CC1	> 50 µM (inactive)

Structure (SMILES)	IC50
CS(=O)(=O)N1CCCc2cc(C(=O)Nc3ccc(Oc4ccccc4)cc3)ccc21	> 50 µM (inactive)
c1ccc(-n2nnc(-c3noc(-c4ccccn4)n3)c2-c2ccncc2)cc1	38.7 µM
Cc1cc(-c2cnc(N(C)C)nc2-c2ccc(CNC(=O)Cc3ccc(F)cc3)cc2)on1	> 50 µM (inactive)
N#Cc1ccc(-c2ccc(OCC(=O)Nc3ccc4c(c3)OCO4)cc2)cc1	> 50 µM (inactive)
COc1ccc(C(=O)Nc2ccc3c(c2)C(=O)N(C)c2ccccc2O3)cc1	> 50 µM (inactive)
COc1ccc(CNC(=O)CCc2nc3sc4c(c3c(=O)[nH]2)CCCCC4)cc1	> 50 µM (inactive)
CCc1nc(SCC(=O)Nc2ccccc2Cl)c2oc3ccccc3c2n1	1.92 µM
O=C(Nc1ccc(-c2cn3ccccc3n2)cc1)C1C=C2C=C(Br)C=CC2OC1=O (stereo not given)	> 50 µM (inactive)
O=C1Nc2c(Cl)cc(Cl)cc2C1(O)c1sc(NC2CCCCC2)nc1-c1ccccc1 (stereo not given)	29.4 µM
Cn1c(CCNC(=O)c2[nH]nc3c2CCc2ccccc2-3)nc2ccccc21	29.3 µM
c1csc(CCN2CCc3nc4cccnc4cc3C2)c1	> 50 µM (inactive)
O=C(C(c1ccccc1)c1ccccc1)N1CCC(c2nc3c(nnn3Cc3c(F)cccc3Cl)c(=O)[nH]2)CC1	27.3 µM
COc1ccccc1NC(=O)CSC1=NC2(CCCCC2)Nc2ccccc21	> 50 µM (inactive)
Cc1cccc(NC(=O)Nc2nnc(CC(=O)NCc3ccccc3)s2)c1	23.9 µM
O=C(C1CCCN(S(=O)(=O)N2CCCCCC2)C1)N1CCN(c2ccccc2)CC1 (stereo not given)	> 50 µM (inactive)
Cc1ccc(Cn2cc(-c3noc(-c4ccc[nH]4)n3)nn2)cc1	19.8 µM
Cc1cc(C(F)(F)F)n2nc(C3CCN(C(=O)c4cnn(C)c4C)C3)cc2n1 (stereo not given)	> 50 µM (inactive)
Cc1ccc(NC(=O)c2cnc(N3CCOCC3)nc2)cc1F	> 50 µM (inactive)
Cc1nc2ccccn2c1C1(O)C(=O)Nc2c(Cl)cc(Cl)cc21 (stereo not given)	> 50 µM (inactive)
COc1c(Cl)ccc2c(=O)c3c(O)c4c5c(c3oc12)OCO[C@H]5[C@@H](OC)c1cc2c(c(O)c1-4)C(=O)N(C)[C@H](OC)[C@@H]2O	> 50 µM (inactive)
CC1(C(=O)NCc2ccccc2)Cn2c(cc3ccccc32)C(=O)N1Cc1ccccc1 (stereo not given)	> 50 µM (inactive)
COc1ccc(NC(=O)c2ccccc2OCC(=O)Nc2ccccc2C(F)(F)F)c(C)c1	29.8 µM
CN(C)S(=O)(=O)N1CCCC2(C1)Nc1cccnc1NC2=NC1CCCC1 (stereo not given)	> 50 µM (inactive)

Structure (SMILES)	IC50
Cc1nc(Nc2ncc(C)s2)cc(C2CN(C(=O)Cc3ccccc3)CCO2)n1 (stereo not given)	> 50 µM (inactive)
O=C(CNS(=O)(=O)c1ccc(F)cc1)N1CCCC(c2nnc3ccccn23)C1 (stereo not given)	> 50 µM (inactive)
NS(=O)(=O)c1ccc(NS(=O)(=O)c2ccc(NC(=O)Nc3ccc(Cl)cc3)cc2)cc1	38.2 µM
O=c1c2cnc3nc(-c4cccnc4)nn3c2ccn1CCc1ccccc1	> 50 µM (inactive)
Cc1ccc(C2c3cccn3CCN2C(=O)Nc2ccccc2)cc1 (stereo not given)	> 50 µM (inactive)
CCOc1ccc2[nH]c(=O)c(CN(C(=O)c3cccs3)C3CCCC3)cc2c1	29.2 µM
COc1cc(C2SCC(=O)Nc3c2c(-c2ccccc2)nn3-c2ccccc2)cc(OC)c1OC (stereo not given)	> 50 µM (inactive)
Nc1ccccc1SC(CC(=O)c1ccc(Cl)cc1)c1ccsc1 (stereo not given)	> 50 µM (inactive)
COc1cc2c(c(OCC(=O)Nc3ccc4c(c3)OCCO4)c1)C(=O)O[C@@H](C)CCCC(=O)CCCCC2	48.5 µM
N#Cc1cn(CC(=O)N2CCc3ccccc32)c2ccccc12	> 50 µM (inactive)
CCOc1ccc2[nH]c3c(=O)n(CCc4ccc(OC)cc4)cnc3c2c1	28.6 µM
COc1ccc(Cl)cc1NC(=O)Cn1c(=O)cc(C)c2c(C)nn(-c3ccccc3)c21	44.3 µM
NC(=O)Cn1c(=O)n(Cc2ccc(C(=O)NC3CCCC3)cc2)c(=O)c2ccccc21	> 50 µM (inactive)
COc1cccc(N2CCN(C(=O)Nc3ccc4c(c3)NC(=O)CO4)CC2)c1	22.4 µM
Cc1ccc(NC(=O)Cn2cc(S(=O)(=O)N3CCCC3)ccc2=O)cc1	27.6 µM
O=C(NC1CCCCC1)c1cc2c(cn1)[nH]c1ccccc12	> 50 µM (inactive)
CCCc1nc2c(sc3nc4c(cc32)COC(C)(C)C4)c(=O)n1CC(=O)Nc1ccccc1C	30 µM
O=c1[nH]cccc1NS(=O)(=O)c1ccc(F)cc1	> 50 µM (inactive)
COCCN(C1CCN(CCc2ccc(Cl)cc2)CC1)S(=O)(=O)c1cccc2cccnc12	> 50 µM (inactive)
CCCC(=O)c1c[nH]c(C(=O)NCc2ccc(F)cc2)c1	32.9 µM
COc1cccc(NC(=O)c2cnc3c(c2)c(=O)n(C)c(=O)n3C)c1	19.9 µM
